SMILES strings stand for the structures.

The target of experiment [1] is T1, Cloned human M1 receptor (CHRM1) stably expressed in HEK293 cells (Homo sapiens, UniProt P11229).
T1 construct: expressed in transfected cells; host or cells: HEK293
T1 sequence (P11229 1-460): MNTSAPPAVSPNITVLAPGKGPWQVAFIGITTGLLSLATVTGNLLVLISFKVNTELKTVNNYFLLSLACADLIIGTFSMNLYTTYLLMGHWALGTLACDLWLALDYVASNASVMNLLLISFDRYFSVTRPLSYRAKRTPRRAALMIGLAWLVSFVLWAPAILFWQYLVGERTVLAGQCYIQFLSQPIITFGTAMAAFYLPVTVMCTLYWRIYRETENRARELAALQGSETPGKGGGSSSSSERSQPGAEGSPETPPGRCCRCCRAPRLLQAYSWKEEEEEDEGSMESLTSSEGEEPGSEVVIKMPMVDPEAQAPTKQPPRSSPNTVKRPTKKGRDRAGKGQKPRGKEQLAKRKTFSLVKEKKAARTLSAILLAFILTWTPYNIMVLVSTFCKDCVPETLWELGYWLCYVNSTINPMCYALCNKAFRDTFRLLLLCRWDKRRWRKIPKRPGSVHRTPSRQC
Put plainly: CHRM1 Ca++ Flux Assay (agonist mode, FDSS 7000EX). In kind it is cell-based. Conditions: for Emax: HEK293, Percent Activity, read-out: M1 FDSS PA; for EC50: geometric mean if tested more than once. Summed up:
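Compounds tested as agonists at 11 concentrations in triplicate, with calcium traces captured over 3 minutes. Cells were HEK293 with stable human CHRM1 expression, plated overnight at 25K/well and loaded with calcium dye. Responses normalized to carbachol EC100 and fitted by four-parameter nonlinear regression.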

Experiment [2] concerns the target T2, human cloned CHRM2 receptor (M2_CHO cells) (Homo sapiens, UniProt P08172).
T2 construct: expressed in transfected cells; host or cells: CHO-K1
T2 sequence (P08172 1-466): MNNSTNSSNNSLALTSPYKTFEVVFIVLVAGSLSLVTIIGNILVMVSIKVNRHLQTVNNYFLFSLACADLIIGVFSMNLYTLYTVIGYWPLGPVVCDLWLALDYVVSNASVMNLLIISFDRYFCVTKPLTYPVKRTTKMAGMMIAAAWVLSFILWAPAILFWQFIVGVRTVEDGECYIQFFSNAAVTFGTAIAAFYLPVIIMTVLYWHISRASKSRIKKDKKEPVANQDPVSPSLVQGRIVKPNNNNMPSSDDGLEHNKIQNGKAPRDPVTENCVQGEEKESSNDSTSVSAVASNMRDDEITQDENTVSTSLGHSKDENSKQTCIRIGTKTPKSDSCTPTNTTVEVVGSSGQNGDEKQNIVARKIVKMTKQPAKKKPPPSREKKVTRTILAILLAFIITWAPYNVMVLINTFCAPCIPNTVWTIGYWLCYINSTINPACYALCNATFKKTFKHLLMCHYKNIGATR
The experiment in a line: CHRM2 Ca++ Flux Assay (agonist mode, FDSS 7000EX). In kind it is cell-based. Conditions: for Emax: Percent Activity measured to EC100 of Carbachol, read-out: M2 FDSS PA; for EC50: agonist mode, geometric mean if tested more than once, read-out: M2 FDSS EC50. A digest of the protocol: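 Agonist-mode Ca++ flux in CHO-K1 cells stably expressing human CHRM2, dye-loaded, then held 60 min at room temperature in buffer with 20 μM ATP before compound addition; traces read over 3 minutes. Four-parameter fit of triplicate wells; percent activity relative to Carbachol EC100.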

With `c1ccc(C2CCN([C@@H]3CCC4(C3)CN(c3nnco3)C4)CC2)c(O[C@@H]2CCOC2)c1` [Example 2B, 2-((R)-6-(4-(2-(((R)-tetrahydrofuran-3-yl)oxy)phenyl)piperidin-1-yl)-2-azaspiro[3.4]octan-2-yl)-1,3,4-oxadiazole], in experiment [1], the Emax was determined as 107% and the response was half-maximal at 36 nM (EC50). Also, in experiment [2], the Emax stood at 32% and the EC50 was determined as 39 nM.
`COCCOc1ccccc1C1CCN([C@@H]2CCC3(C2)CN(c2nnco2)C3)CC1` [Example 2C]: the figures for the Emax in experiment [1] and in experiment [2] were 79% and 0%, respectively. Moreover, the half-maximal effective concentration (EC50) in experiment [1] was 59 nM.
Turning to `FC1(COc2ccccc2C2CCN([C@@H]3CCC4(C3)CN(c3nnco3)C4)CC2)CCOCC1` [Example 2D, (R)-2-(6-(4-(2-((4-fluorotetrahydro-2H-pyran-4-yl)methoxy)phenyl)piperidin-1-yl)-2-azaspiro[3.4]octan-2-yl)-1,3,4-oxadiazole], in experiment [1], the Emax was determined as 82% and the concentration for a half-maximal effect (EC50) is 141 nM. Moreover, in experiment [2], the Emax came out at 8% and the half-maximal effective concentration (EC50) was found to be 50 nM.
Consider `CC1(COc2ccccc2C2CCN([C@@H]3CCC4(C3)CN(c3nnco3)C4)CC2)CCOCC1` [Example 2E, (R)-2-(6-(4-(2-((4-methyltetrahydro-2H-pyran-4-yl)methoxy)phenyl)piperidin-1-yl)-2-azaspiro[3.4]octan-2-yl)-1,3,4-oxadiazole], for which, in experiment [1], the Emax was found to be 78% and the half-maximal effective concentration (EC50) was 381 nM. Moreover, in experiment [2], the Emax was determined as 10% and the EC50 stood at 90 nM.
The matching figures for `c1ccc(C2CCN([C@@H]3CCC4(C3)CN(c3nnco3)C4)CC2)c(OC2CCOCC2)c1` [Example 2F, (R)-2-(6-(4-(2-((tetrahydro-2H-pyran-4-yl)oxy)phenyl)piperidin-1-yl)-2-azaspiro[3.4]octan-2-yl)-1,3,4-oxadiazole]: 112%, 277 nM, 22% and 64 nM.
Take `c1ccc(C2CCN([C@@H]3CCC4(C3)CN(c3nnco3)C4)CC2)c(OCC2CCOCC2)c1` [Example 2G, (R)-2-(6-(4-(2-((tetrahydro-2H-pyran-4-yl)methoxy)phenyl)piperidin-1-yl)-2-azaspiro[3.4]octan-2-yl)-1,3,4-oxadiazole]: in experiment [1], the Emax worked out at 51% and the concentration giving a half-maximal response (EC50) worked out at 429 nM. Besides, in experiment [2], the Emax is 19% and the half-maximal effective concentration (EC50) amounted to 136 nM.
The matching figures for `c1ccc(C2CCN([C@@H]3CCC4(C3)CN(c3nnco3)C4)CC2)c(C2CCOCC2)c1` [Example 2H, (R)-2-(6-(4-(2-(tetrahydro-2H-pyran-4-yl)phenyl)piperidin-1-yl)-2-azaspiro[3.4]octan-2-yl)-1,3,4-oxadiazole]: 61%, 178 nM, 32% and 458 nM.
Regarding `Fc1ccc(C2CCOCC2)c(C2CCN([C@@H]3CCC4(C3)CN(c3nnco3)C4)CC2)c1` [Example 2I, (R)-2-(6-(4-(5-fluoro-2-(tetrahydro-2H-pyran-4-yl)phenyl)piperidin-1-yl)-2-azaspiro[3.4]octan-2-yl)-1,3,4-oxadiazole], in experiment [1], the Emax came out at 89% and the EC50 was determined as 106 nM. Moreover, in experiment [2], the Emax was determined as 41% and the 50% effective concentration (EC50) amounted to 125 nM.
On the same counts, the results for `c1ccc(C2CCOC2)c(C2CCN([C@@H]3CCC4(C3)CN(c3nnco3)C4)CC2)c1` (stereo partly drawn) [Example 2K, 2-((6R)-6-(4-(2-(tetrahydrofuran-3-yl)phenyl)piperidin-1-yl)-2-azaspiro[3.4]octan-2-yl)-1,3,4-oxadiazole] are 97%, 133 nM, 29% and 159 nM.
`c1ccc(C2CCN([C@@H]3CCC4(C3)CN(c3nnco3)C4)CC2)c(CC2CCOCC2)c1` [Example 2L, (R)-2-(6-(4-(2-((tetrahydro-2H-pyran-4-yl)methyl)phenyl)piperidin-1-yl)-2-azaspiro[3.4]octan-2-yl)-1,3,4-oxadiazole]: the Emax in experiment [1] stood at 69%; in experiment [2] it was 0%. In experiment [1], the concentration giving a half-maximal response (EC50) is 540 nM.
As to `c1ccc(C2CCN([C@@H]3CCC4(C3)CN(c3nnco3)C4)CC2)c(-c2ncco2)c1` [Example 2M, (R)-2-(6-(4-(2-(oxazol-2-yl)phenyl)piperidin-1-yl)-2-azaspiro[3.4]octan-2-yl)-1,3,4-oxadiazole], the Emax in experiment [1] stood at 99%; in experiment [2], 18%. Besides, the EC50 worked out at 93 nM in experiment [1] and 343 nM in experiment [2].
Regarding `c1ccc(C2CCN([C@@H]3CCC4(C3)CN(c3nncs3)C4)CC2)c(OC2COC2)c1` [Example 3A, (R)-2-(6-(4-(2-(oxetan-3-yloxy)phenyl)piperidin-1-yl)-2-azaspiro[3.4]octan-2-yl)-1,3,4-thiadiazole], the Emax in experiment [1] worked out at 92%; in experiment [2], 21%. Also, the concentration giving a half-maximal response (EC50) is 8 nM in experiment [1] and 76 nM in experiment [2].
On the same counts, the results for `c1ccc(C2CCN([C@@H]3CCC4(C3)CN(c3nncs3)C4)CC2)c(OC[C@H]2COCCO2)c1` [Example 3B, 2-((R)-6-(4-(2-(((R)-1,4-dioxan-2-yl)methoxy)phenyl)piperidin-1-yl)-2-azaspiro[3.4]octan-2-yl)-1,3,4-thiadiazole] are 83%, 16%, 51 nM and 18 nM.
The matching figures for `c1ccc(C2CCN([C@@H]3CCC4(C3)CN(c3nncs3)C4)CC2)c(OC[C@@H]2COCCO2)c1` [Example 3C, 2-((R)-6-(4-(2-(((S)-1,4-dioxan-2-yl)methoxy)phenyl)piperidin-1-yl)-2-azaspiro[3.4]octan-2-yl)-1,3,4-thiadiazole]: 88%, 18%, 41 nM and 24 nM.
In the case of `COc1ccccc1C1CCN([C@@H]2CCC3(C2)CN(c2nncs2)C3)CC1` [Example 3D, (R)-2-(6-(4-(2-methoxyphenyl)piperidin-1-yl)-2-azaspiro[3.4]octan-2-yl)-1,3,4-thiadiazole], the Emax is 78% in experiment [1] and 17% in experiment [2]. The midpoint of the response in experiment [1], the EC50, lay at 42 nM.
Regarding `Fc1cccc(C2CCN([C@@H]3CCC4(C3)CN(c3nncs3)C4)CC2)c1OC1COC1` [Example 3E, (R)-2-(6-(4-(3-fluoro-2-(oxetan-3-yloxy)phenyl)piperidin-1-yl)-2-azaspiro[3.4]octan-2-yl)-1,3,4-thiadiazole], in experiment [1], the Emax came out at 87% and the EC50 was 54 nM. Further, in experiment [2], the Emax came to 31% and the EC50 was found to be 191 nM.
As to `COCCOc1ccccc1C1CCN([C@@H]2CCC3(C2)CN(c2nncs2)C3)CC1` [Example 3F, (R)-2-(6-(4-(2-(2-methoxyethoxy)phenyl)piperidin-1-yl)-2-azaspiro[3.4]octan-2-yl)-1,3,4-thiadiazole], in experiment [1], the Emax was 68% and the half-maximal effective concentration (EC50) is 40 nM. For the same molecule, in experiment [2], the Emax is 0%.
As to `CC(C)(O)COc1ccccc1C1CCN([C@@H]2CCC3(C2)CN(c2nncs2)C3)CC1` [Example 3G, (R)-1-(2-(1-(2-(1,3,4-thiadiazol-2-yl)-2-azaspiro[3.4]octan-6-yl)piperidin-4-yl)phenoxy)-2-methylpropan-2-ol], in experiment [1], the Emax is 66% and the EC50 is 135 nM. In addition, in experiment [2], the Emax came out at 20% and the 50% effective concentration (EC50) was 304 nM.
Take `CC(C)(O)CCOc1ccccc1C1CCN([C@@H]2CCC3(C2)CN(c2nncs2)C3)CC1` [Example 3H, (R)-4-(2-(1-(2-(1,3,4-thiadiazol-2-yl)-2-azaspiro[3.4]octan-6-yl)piperidin-4-yl)phenoxy)-2-methylbutan-2-ol]: in experiment [1], the Emax was 84% and a half-maximal response (EC50) required 20 nM. Further, the Emax in experiment [2] stood at 0%.
As to `COc1ccccc1C1CCN([C@@H]2CCC3(C2)CN(c2ccns2)C3)CC1` [Example 3I, (R)-5-(6-(4-(2-methoxyphenyl)piperidin-1-yl)-2-azaspiro[3.4]octan-2-yl)isothiazole], in experiment [1], the Emax came out at 70% and the EC50 was determined as 54 nM. In experiment [2], the Emax worked out at 40%.

For orientation: EC50 means the concentration needed to bring the measured effect to its halfway point.

The record behind these values is US12122761B2, “2-azaspiro[3.4]octane derivatives as M4 agonists” (NOVARTIS AG, priority 2019, dated 2024).
